# Data published in patent US20250206773A1, “FORMS AND COMPOSITIONS OF SODIUM CHENODEOXYCHOLATE” (Syntis Bio, Inc., priority 2022, published 2025).
# Where two headings read alike, the source gives them in different places.
# Key:
# [1] = type: physicochemical; conditions: pH 7.4
# Experimental: Solubility curve measurements of NaCDC Form A and Form B were performed using a Crystal16 automatic crystallizer (Technobis Crystallization Systems), having an array of 16 microreactors equipped with turbidimeters for the determination of clear and cloud points. Samples of four different concentrations for each crystalline form were prepared by weighing accurately different amounts of each sample and adding 1000 μL of phosphate buffer (pH 7.4) to each vial. The suspensions thus obtained were stirred using a magnetic stirrer and heated from 0° C. to 90° C. at 0.5° C./min. The clear point for each sample was determined and plotted to obtain a crystallization curve (FIG. 13).
# [2] = Polymorph screening: vapor diffusion onto solids; type: physicochemical
# Experimental: Around 20 mg of NaCDC Form B were weighed into 1.6 mL HPLC vials. Each of the aforementioned vials was inserted individually into 40 mL vessels containing initially 0.5 mL of the corresponding solvent. The vessels were isolated from light and atmosphere and allowed to stand for 12 days, in a closed cabinet at 25° C. or in an oven at 50° C. After the experimental time, the majority of the samples remained solids/wet solids (experiments VDS02-12), which were harvested and analyzed by XRPD. […] All solids were analyzed by XRPD, and depending on the results obtained, some experiments were also analyzed by HPLC and TG/DSC.
# [3] = type: physicochemical; conditions: RT
# Experimental: HPLC analysis was carried out on an Agilent 1260 Infinity chromatograph, using a Hichrom C18 column 100×4.6 mm, 3.5 m, at 40° C. Method details were as follows: [table] Photostability of NaCDC Form B was evaluated by exposing it in solid state and in MeOH solutions to UV 254 nm light for 48 hours in clear, amber, and aluminum foil wrapped vials. The solutions were prepared by weighing around 10 mg NaCDC Form B and mixing it with 500 μL MeOH. The solids and solutions were sampled after 48 hours and analyzed by HPLC, in order to assess degradation. In parallel, XRPD analysis was performed on the recovered solids.
# [4] = type: physicochemical
# Experimental: HPLC analysis was carried out on an Agilent 1260 Infinity chromatograph, using a Hichrom C18 column 100×4.6 mm, 3.5 m, at 40° C. Method details were as follows:
# Around 10 mg of NaCDC Form B was weighed into clear HPLC vials and the selected solvents (500 μL) were added to the vials. Experiments ST07, 09, 11, 13, 15, 17, 19 and 21 were kept stirring for 24 h at 30° C. and 60° C., while samples were taken after 4 h and 24 h for HPLC analysis. Subsequently, the same experiments were evaporated at 30° C. for 24 h under reduced pressure (21-22 mbar), and the solids were evaluated by HPLC and XRPD. Separately, the solutions and slurries from experiments ST10, 12, 14, 16, 18, 20 and 22 were stirred for 24 h at 30° C. and 60° C. (no samples were taken) and evaporated at 60° C. for 24 h under reduced pressure (20-21 mbar). The recovered materials were sampled for HPLC and XRPD analyses.
# [5] = Polymorph screening: solvent drop grinding; type: physicochemical; conditions: grinding 10 min. at RT
# Experimental: Around 20 mg of NaCDC Form B was ground together with 10 μL aliquots of the corresponding solvent for 10 minutes at RT using an agate mortar with pestle. When total evaporation of the solvent was observed, another aliquot of 10 μL solvent was added and this procedure was repeated until experiment completion time. All solids were analyzed by XRPD. For the experiments where phase transformation was observed via XRPD, additional analyses of TG/DSC and/or HPLC were performed.
# [6] = ST13: Methanol, solution, 60° C.
# [7] = ST17: n-Heptane, slurry, 60° C.
structure (smiles),measurement,setting,value
"C[C@H](CCC(=O)[O-])[C@H]1CC[C@H]2[C@@H]3[C@H](O)C[C@@H]4C[C@H](O)CC[C@]4(C)[C@H]3CC[C@]12C.[Na+] [Form B, sodium chenodeoxycholate]",solubility compared to NaCDC Form A (solubility curve),[1],slightly higher solubility
same,HPLC purity (%) at 212 nm,"[2]; VDS01, Methanol (MeOH) vapor, 25° C., 12 days, fine suspension, evap. at 30° C., 21 mbar, overnight",89.99%
same,XRPD,"[2]; VDS03, Ethyl acetate (EtOAc) vapor, diffusion at 25° C. after 12 days","SM, P.O."
same,HPLC purity (%) at 212 nm,"[2]; VDS05, Ethanol (EtOH) vapor, diffusion at 50° C. after 12 days",92.11%
same,XRPD,"[2]; VDS06, 2-Propanol (2-PrOH) vapor, diffusion at 50° C. after 12 days","SM, P.O."
same,XRPD,"[2]; VDS08, Diisopropyl ether vapor, diffusion at 50° C. after 12 days","SM, P.O."
same,HPLC purity (%) at 212 nm,"[2]; VDS09, 2,2,2-Trifluoroethanol (TFE) vapor, diffusion at 50° C. after 12 days, slurry air-dried on filter paper",90.89%
same,XRPD,"[2]; VDS11, Acetonitrile (MeCN) vapor, diffusion at 50° C. after 12 days","SM, P.O."
same,HPLC purity (%) at 212 nm,"[2]; VDS12, Methyl ethyl ketone (MEK) vapor, diffusion at 50° C. after 12 days",93.65%
same,"HPLC (%) at 212 nm, after 48h","[3]; ST01: UV 254 nm, solid, clear vial",94.4%
same,"HPLC (%) at 212 nm, after 48h","[3]; ST02: UV 254 nm, solid, amber vial",95.0%
same,"HPLC (%) at 212 nm, after 48h","[3]; ST03: UV 254 nm, solid, control - dark",95.4%
same,"HPLC (%) at 212 nm, after 48h","[3]; ST04: UV 254 nm, MeOH solution, clear vial",91.4%
same,"HPLC (%) at 212 nm, after 48h","[3]; ST05: UV 254 nm, MeOH solution, amber vial",91.0%
same,"HPLC (%) at 212 nm, after 48h","[3]; ST06: UV 254 nm, MeOH solution, control - dark",94.2%
same,HPLC purities throughout the stability tests,[4],≥ 86.1%
same,form stability in slurry experiments (XRPD),[4],stable
same,stability in solution and/or slurry,[4],remained stable
same,HPLC (%) at 212 nm (after evap.),"[4]; ST07: Water solution RT 24 h, evaporated at 30° C. 24 h",97.8%
same,XRPD (after evap.),"[4]; ST07: Water solution RT, evaporated at 30° C.",Am.
same,HPLC (%) at 212 nm (before evap.) 4 h,"[4]; ST07: Water, solution, RT",100.0%
same,HPLC (%) at 212 nm (before evap.) 24 h,"[4]; ST07: Water, solution, RT",96.2%
same,HPLC (%) at 212 nm (after evap.),"[4]; ST08: Water solution RT 24 h, evaporated at 60° C. 24 h, listed as NaCDC Form B",84.6%
same,HPLC (%) at 212 nm (after evap.),"[4]; ST08: Water solution RT 24 h, evaporated at 60° C. 24 h, listed as starting material",around 84.5%
same,XRPD (after evap.),"[4]; ST08: Water solution RT, evaporated at 60° C.",Am.
same,HPLC (%) at 212 nm (after evap.),"[4]; ST09: Water solution 60° C. 24 h, evaporated at 30° C. 24 h",95.7%
same,XRPD (after evap.),"[4]; ST09: Water solution 60° C., evaporated at 30° C.",Am.
same,HPLC (%) at 212 nm (before evap.) 4 h,"[4]; ST09: Water, solution, 60° C.",100.0%
same,HPLC (%) at 212 nm (before evap.) 24 h,"[4]; ST09: Water, solution, 60° C.",96.6%
same,HPLC (%) at 212 nm (after evap.),"[4]; ST10: Water solution 60° C. 24 h, evaporated at 60° C. 24 h",90.0%
same,XRPD (after evap.),"[4]; ST10: Water solution 60° C., evaporated at 60° C.",Am.
same,HPLC (%) at 212 nm (after evap.),"[4]; ST11: Methanol solution RT 24 h, evaporated at 30° C. 24 h",87.1%
same,XRPD (after evap.),"[4]; ST11: Methanol solution RT, evaporated at 30° C.",Am.
same,HPLC (%) at 212 nm (before evap.) 4 h,"[4]; ST11: Methanol, solution, RT",91.4%
same,HPLC (%) at 212 nm (before evap.) 24 h,"[4]; ST11: Methanol, solution, RT",93.5%
same,HPLC (%) at 212 nm (after evap.),"[4]; ST12: Methanol solution RT 24 h, evaporated at 60° C. 24 h",90.5%
same,XRPD (after evap.),"[4]; ST12: Methanol solution RT, evaporated at 60° C.",Am.
same,HPLC (%) at 212 nm (after evap.),"[4]; ST13: Methanol solution 60° C. 24 h, evaporated at 30° C. 24 h",no peak~
same,XRPD (after evap.),"[4]; ST13: Methanol solution 60° C., evaporated at 30° C.",Am.
same,HPLC (%) at 212 nm (before evap.) 4 h,[4]; [6],94.8%
same,HPLC (%) at 212 nm (before evap.) 24 h,[4]; [6],90.3%
same,HPLC (%) at 212 nm (after evap.),"[4]; ST14: Methanol solution 60° C. 24 h, evaporated at 60° C. 24 h",92.5%
same,XRPD (after evap.),"[4]; ST14: Methanol solution 60° C., evaporated at 60° C.",Am.
same,HPLC (%) at 212 nm (after evap.),"[4]; ST15: n-Heptane slurry RT 24 h, evaporated at 30° C. 24 h",no peak~
same,HPLC (%) at 212 nm (before evap.) 4 h,"[4]; ST15: n-Heptane, slurry, RT",89.9%
same,HPLC (%) at 212 nm (before evap.) 24 h,"[4]; ST15: n-Heptane, slurry, RT",100.0%
same,HPLC (%) at 212 nm (after evap.),"[4]; ST16: n-Heptane slurry RT 24 h, evaporated at 60° C. 24 h, listed as NaCDC Form B",84.5%
same,HPLC (%) at 212 nm (after evap.),"[4]; ST16: n-Heptane slurry RT 24 h, evaporated at 60° C. 24 h, listed as starting material",around 84.5%
same,HPLC (%) at 212 nm (after evap.),"[4]; ST17: n-Heptane slurry 60° C. 24 h, evaporated at 30° C. 24 h",93.6%
same,HPLC (%) at 212 nm (before evap.) 4 h,[4]; [7],91.5%
same,HPLC (%) at 212 nm (before evap.) 24 h,[4]; [7],91.4%
same,HPLC (%) at 212 nm (after evap.),"[4]; ST18: n-Heptane slurry 60° C. 24 h, evaporated at 60° C. 24 h",90.4%
same,HPLC (%) at 212 nm (after evap.),"[4]; ST19: MEK slurry RT 24 h, evaporated at 30° C. 24 h",74.1%
same,HPLC (%) at 212 nm (before evap.) 4 h,"[4]; ST19: MEK, slurry, RT",100.0%
same,HPLC (%) at 212 nm (before evap.) 24 h,"[4]; ST19: MEK, slurry, RT",97.7%
same,HPLC (%) at 212 nm (after evap.),"[4]; ST20: MEK slurry RT 24 h, evaporated at 60° C. 24 h",86.1%
same,HPLC (%) at 212 nm (after evap.),"[4]; ST21: MEK slurry 60° C. 24 h, evaporated at 30° C. 24 h",55.9%
same,HPLC (%) at 212 nm (before evap.) 4 h,"[4]; ST21: MEK, slurry, 60° C.",65.2%
same,HPLC (%) at 212 nm (before evap.) 24 h,"[4]; ST21: MEK, slurry, 60° C.",94.5%
same,HPLC (%) at 212 nm (after evap.),"[4]; ST22: MEK slurry 60° C. 24 h, evaporated at 60° C. 24 h",86.6%
same,HPLC purity (%) at 212 nm,"[5]; SDGR01, Ethanol (EtOH) 140 μL",83.36%
same,HPLC purity (%) at 212 nm,"[5]; SDGR02, 2-Propanol 80 μL",81.26%
same,HPLC purity (%) at 212 nm,"[5]; SDGR03, 2,2,2-Trifluoroethanol (TFE) 90 μL",90.87%
same,XRPD,"[5]; SDGR04, Diisopropyl ether 160 μL","SM, l.c."
same,HPLC purity (%) at 212 nm,"[5]; SDGR05, MeOH:EtOAc (1:1 v/v) 260 μL",82.04%
same,HPLC purity (%) at 212 nm,"[5]; SDGR06, MeOH:Acetone (1:1 v/v) 240 μL",85.56%
same,HPLC purity (%) at 212 nm,"[5]; SDGR07, EtOH:MeCN (1:1 v/v) 190 μL",86.54%
same,HPLC purity (%) at 212 nm,"[5]; SDGR08, EtOH:n-Heptane (1:1 v/v) 220 μL",90.36%
